This is an account of results in patent US20110206638A1, “COMPOSITIONS AND METHODS FOR REDUCING THE MUTATION RATE OF VIRUSES” (priority 2010, published 2011).

The subject of test [1] is subgenomic HCV replicon of genotype 1b (Con1S1179I), NS5A region. The test can be described thus: NS5A sequencing of HCV RNA, nucleotide and amino acid substitution rates in Con1 replicon cells (Example 2). The test is classed as cell-based, Hepatitis C virus. The following applies: for dn/ds / Ts/Tv / Percentage of sites showing positive selection / location of mutations in NS5A / Fold increase (Amino acid change per site) / Fold increase (Nt. change per site): 48 hrs; for dn/ds: SNAP, control 0.31; for Ts/Tv: control 3.3; for Percentage of sites showing positive selection: control 4.25%; for Amino acid change per site / Nt. change per site: Con1 replicon cells, once daily for 48 hrs, T7 baseline subtracted; for Nt. change per site: ethanol 0.5% v/v, BSO 20 μM, H2O2 100 μM, acetaldehyde 10 μM; for location of mutations in NS5A: SNAP plot against codons; for percentage of nucleotide substitutions A→C / percentage of nucleotide substitutions A→G / percentage of nucleotide substitutions A→U / percentage of nucleotide substitutions C→A / percentage of nucleotide substitutions C→G / percentage of nucleotide substitutions C→U / percentage of nucleotide substitutions G→A / percentage of nucleotide substitutions G→C / percentage of nucleotide substitutions G→U / percentage of nucleotide substitutions U→A / percentage of nucleotide substitutions U→C / percentage of nucleotide substitutions U→G: of all nt. substitutions in the group; for Fold increase (Amino acid change per site) / Fold increase (Nt. change per site): over control. How it is done:
Huh7 cell clones (SgPC2 cells) supporting continuous replication of a subgenomic HCV replicon of genotype 1b (Con1S1179I sequence) were used (Choi J. et al. (2004) Hepatology 39:81-89; Blight K J et al. (2000) Science 290:1972). Subgenomic replicons support the HCV RNA genome replication by the viral replicase but no virus is formed. The in vitro transcription, transfection of the viral RNA, and Huh7 human hepatoma cell culture were performed as described (Choi J. et al. (2004) Hepatology 39:81-89; Blight K J et al. (2000) Science 290:1972). All biochemicals including ethanol (molecular biology grade), acetaldehyde, BSO, H2O2, dipyridal, and GSH ethyl ester were obtained from SigmaAldrich except PIH, which was synthesized according to published methods (Kicic A et al., (2001) Cancer 92: 3093-3110; Ponka P. et al., (1979) FEBS Lett 97: 317-321).
Total RNAs were collected using Trizol (Invitrogen). Then, the NS5A region (nt. 4612 to 6013 of Con1 replicon) was reverse transcribed/amplified with AccuScript High Fidelity RT-PCR System (Agilent). The reverse primer used for reverse transcription and PCR amplification was 5′-[…]-3′ (SEQ ID NO: 1), and the forward primer was 5′-[…]-3′ (SEQ ID NO: 2). The XbaI and HindIII restriction enzyme sites are underlined. The cDNA products were cloned into pUC19 via HindIII and XbaI sites and sequenced at the Joint Genome Institute (Livermore, Calif.) and University of California Berkeley Sequencing (Berkeley, Calif.). Sequences were aligned against Con1(S1179I) sequence, using BioEdit/MEGA 4.0 Molecular Evolutionary Genetics Analysis software. Cumulative synonymous and nonsynonymous mutations were computed using Synonymous Nonsynonomous Analysis Program (SNAP; www.hcv.lanl.gov). The […] ratio was calculated using SNAP. Amino acid substitution trends were analyzed by position with MutationCounter, a mutation counting program, developed for this project. The sequences were compared with 1,212 genotype 1b NS5A sequences pooled from the Lawrence Livermore HCV sequence database (www.hcv.lanl.gov) which included sequences from the European, Asian, and Russian databases. Sequences harboring gaps, undetermined nucleotides, or incomplete NS5A sequences were removed prior to the analysis.
To test whether ethanol can affect the HCV RNA sequence, Con1 replicon cells that support genotype 1b subgenomic HCV RNA replication were incubated with ethanol (0.5% v/v), BSO (20 μM), H2O2 (100 μM), or acetaldehyde (10 μM) once daily for 48 hrs with a change of the cell culture medium at the time of each treatment. Acetaldehyde and H2O2 are generated during hepatic metabolism of ethanol. BSO, by inhibiting GSH biosynthesis, mimics GSH depletion seen in hepatitis C patients. GSH participates in detoxification reactions that remove reactive species such as H2O2 and acetaldehyde. Thus, by decreasing GSH, BSO also amplifies the effects of endogenous ROS and RNS, allowing one to test the effects of endogenous ROS/RNS. Then, the RNA was collected, and the NS5A region corresponding to nt. 4612 to 6013 of Con1 replicon was reverse transcribed using AccuScript reverse transcriptase and amplified with PfuUltra (Agilent). PfuUltra is a high fidelity DNA polymerase with an error rate of 4.3×10^−9; AccuScript reverse transcriptase has an error rate of 1.61×10^−7. Then, the cDNA products were cloned into pUC19 and sequenced by the Sanger method.

Another test relates to Huh7 cells. The test is classed as cell-based, human.

Description for Huh7 cells: Total RNA was isolated using Trizol (Invitrogen) and analyzed for 8-OH-guanosine (8-OH-G) by northwestern, as described (Shan X et al. (2003) J. Neurosci. 23:4913-4921). Briefly, RNA was size-fractionated by agarose gel electrophoresis, transferred to a nylon membrane, blocked with 1% BSA, incubated sequentially with monoclonal anti-8-OH-G/dG antibodies (QED Bioscience, Inc.) and then with goat anti-mouse HRP-conjugated secondary antibody (Santa Cruz Biotechnology), and signals were detected, using an ECL kit (Amersham). In addition, RNA was digested with nuclease P1 (Sigma, US Biological) and alkaline phosphatase (Promega) and analyzed for 8-OH-G content using RNA Damage Kit (Cell Biolabs, Inc.), following manufacturer's protocols.
GO continuously generates H2O2 extracellularly, in the presence of glucose and can be used to mimic inflammation and continued oxidative stress seen during chronic hepatitis C. […] An in vitro-oxidized control Huh7 RNA (incubated with H2O2+cytochrome C) was used as a positive control (FIG. 3A). […] NiCl2 was used as a positive control genotoxin in FIGS. 3B and 3C.

With `CCCCS(=N)(=O)CCC(N)C(=O)O` [BSO, L-buthionine-S,R-sulfoximine], in test [1], the dn/ds is recorded as 0.72, the Ts/Tv came out at 3.3, the “Percentage of sites showing positive selection” value is reported as 12.3% and the “Amino acid change per site” value was 3.24×10^−3 amino acid change per site. In test [1], the “Nt. change per site” value is on record as 1.20×10^−3 nt. change per site, the “location of mutations in NS5A” value is reported as “clustered in the C-terminal half of NS5A”, the “percentage of nucleotide substitutions A→C” value was determined as 1.28 percentage and the “percentage of nucleotide substitutions A→G” value is recorded as 24.36 percentage. In test [1], the “percentage of nucleotide substitutions A→U” value came to 2.56 percentage, the “percentage of nucleotide substitutions C→A” value came to 3.85 percentage, the “percentage of nucleotide substitutions C→G” value came to 5.13 percentage and the “percentage of nucleotide substitutions C→U” value turned out to be 8.97 percentage. Besides, in test [1], the “percentage of nucleotide substitutions G→A” value stood at 16.67 percentage, the “percentage of nucleotide substitutions G→C” value was 3.85 percentage, the “percentage of nucleotide substitutions G→U” value is recorded as 3.85 percentage and the “percentage of nucleotide substitutions U→A” value was determined as 0 percentage. In test [1], the “percentage of nucleotide substitutions U→C” value was determined as 29.49 percentage, the “percentage of nucleotide substitutions U→G” value was 0 percentage and the “Fold increase (Amino acid change per site)” value is on record as 11.6 fold.

Consider `CCO` [Ethanol, ethanol], for which, in test [1], the dn/ds is listed as 1.05, the Ts/Tv is given as 6.8, the “Percentage of sites showing positive selection” value was 12.3% and the “Amino acid change per site” value was 4.97 × 10^−3 amino acid change per site. In test [1], the “Nt. change per site” value is recorded as 1.71 × 10^−3 nt. change per site, the “location of mutations in NS5A” value was “clustered in the C-terminal half of NS5A”, the “percentage of nucleotide substitutions A→C” value turned out to be 1.30 percentage and the “percentage of nucleotide substitutions A→G” value worked out at 25.97 percentage. In test [1], the “percentage of nucleotide substitutions A→U” value was 2.60 percentage, the “percentage of nucleotide substitutions C→A” value was determined as 0 percentage, the “percentage of nucleotide substitutions C→G” value is reported as 0 percentage and the “percentage of nucleotide substitutions C→U” value was determined as 18.18 percentage. Besides, in test [1], the “percentage of nucleotide substitutions G→A” value is 12.99 percentage, the “percentage of nucleotide substitutions G→C” value amounted to 6.49 percentage, the “percentage of nucleotide substitutions G→U” value is 2.60 percentage and the “percentage of nucleotide substitutions U→A” value came to 0 percentage. In test [1], the “percentage of nucleotide substitutions U→C” value is on record as 29.87 percentage, the “percentage of nucleotide substitutions U→G” value was 0 percentage, the “Fold increase (Amino acid change per site)” value was determined as 17.8 fold and the “Fold increase (Nt. change per site)” value stood at 5.9 fold. In addition, in test [1] (listed as ethanol), the “Nt. change per site” value is given as 1.71×10^−3 nt. change per site, the “Amino acid change per site” value is 4.97×10^−3 amino acid change per site, the “Fold increase (Amino acid change per site)” value is roughly 18 fold and the “Fold increase (Nt. change per site)” value is given as “about 6 fold”. Further, in the test with Huh7 cells, the “8-OHG in Huh7 cells” value was “elevated”.
